According to PubChem BioAssay (NCI):
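How tested: cells in 96-well plates exposed to compound for 48 hours at five concentrations. The concentration for full growth arrest is given as TGI.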 Where a SMILES comes first, the peptide text is derived from it. The star is where a group is joined. Cbz = O=C(OCc1ccccc1)*

How the values were obtained:
Test in all cases: growth of human tumour cells (NCI), 48 h
[1] = tested on: HCC-2998 colon
[2] = tested on: HCT-116 colon
[3] = tested on: K-562 leukemia
[4] = tested on: MALME-3M melanoma
[5] = tested on: HT29 colon
[6] = tested on: MOLT-4 leukemia
[7] = tested on: SNB-75 CNS
[8] = tested on: NCI-H460 lung
[9] = tested on: DU-145 prostate
[10] = tested on: A498 renal
[11] = tested on: UO-31 renal
[12] = tested on: SNB-19 CNS

Row | SMILES | TGI [1] | TGI [2] | TGI [3] | TGI [4] | TGI [5] | TGI [6] | TGI [7] | TGI [8] | TGI [9] | TGI [10] | TGI [11] | TGI [12]
1 | CN(C)CCNc1c(O)c2c(c(O)c1Cl)C(=O)C=CC2=O | 3.59 µM | 3.32 µM | 6.66 µM | 3.64 µM | 3.29 µM | > 100 µM | 6.55 µM | 3.63 µM | 3.36 µM | 9.74 µM | 4.75 µM | 3.76 µM
2 | Cc1cc2c(cc1Cl)SSc1cc(Cl)c(C)cc1S(=O)(=O)Nc1nc(N)nn1C(O)n1nc(N)nc1NS2(=O)=O | > 10 µM | > 10 µM | > 10 µM | > 10 µM | > 10 µM | > 10 µM | > 10 µM | > 10 µM | > 10 µM | > 10 µM | > 10 µM | > 10 µM
3 | CCN(CC)C1=Nc2ccccc2-n2ccnc2C1 | > 100 µM | > 100 µM | > 100 µM | – | > 100 µM | > 100 µM | > 100 µM | > 100 µM | > 100 µM | > 100 µM | > 100 µM | > 100 µM
4 | COc1cc2ncnc(Nc3cccc(Br)c3)c2cc1OC | 10.2 µM | 39.3 µM | > 55.5 µM | 32.2 µM | 18.8 µM | > 65.5 µM | 29.3 µM | 21.1 µM | 34.2 µM | 29.4 µM | 33.6 µM | > 77.4 µM
5 | c1ccc(C/C(=N\Nc2nc3ccccc3[nH]2)c2ccccn2)cc1 | 30.9 µM | 5.18 µM | > 100 µM | 2.23 µM | 5.23 µM | 6.85 µM | – | 11.3 µM | 27.7 µM | 1.37 µM | 1.88 µM | 17.9 µM
6 | N#C/C=C(/NC(=O)Nc1ccccc1)N1CCCC1 | > 53 µM | > 55.5 µM | > 100 µM | > 66.9 µM | > 100 µM | > 100 µM | > 21.4 µM | > 55.4 µM | > 85.6 µM | > 100 µM | > 100 µM | > 45.6 µM
7 | CCOC(=O)CCC(NC(=O)C(CC(=O)OC)NC(=O)OCc1ccccc1)C(=O)NC(CC(=O)OC)C(=O)NC(CCC(=O)OCC)C(=O)NC(CC(=O)OC)C(=O)NC(CCC(=O)OCC)C(=O)NC(CC(=O)OCC)C(=O)OCC (centres undefined) (Cbz-D(OMe)E(OEt)D(OMe)E(OEt)D(OMe)E(OEt)D(OEt)-OEt; configuration not given here) | > 100 µM | > 100 µM | > 100 µM | > 100 µM | > 100 µM | > 100 µM | – | > 100 µM | > 100 µM | > 100 µM | > 100 µM | > 100 µM
8 | CN(C)CC1CCC/C(=C\c2ccc(Cl)c(Cl)c2)C1=O (centres undefined) | 25.5 µM | 3.96 µM | 5.47 µM | 20.3 µM | > 33.9 µM | 4.83 µM | 21.2 µM | 28 µM | 23 µM | 26.9 µM | 5.99 µM | 22.4 µM
9 | CCOC(=O)Cn1nnc2ccc(Nc3nc4ccccc4nc3C(=O)OCC)cc21 | > 100 µM | > 100 µM | > 100 µM | > 100 µM | > 100 µM | > 100 µM | 46.5 µM | > 100 µM | > 100 µM | > 100 µM | > 100 µM | > 100 µM
10 | O=[N+]([O-])C(/C(Cl)=C(/Cl)N1CCOCC1)=C1\Nc2ccccc2O1 | > 100 µM | > 100 µM | > 100 µM | > 100 µM | > 100 µM | > 100 µM | > 100 µM | > 100 µM | > 100 µM | > 100 µM | > 100 µM | > 100 µM
11 | CCOC(=O)N1CCC2(CC1)C[C@](Sc1ccccc1)(C(C)=O)[C@H](C)O2 | > 100 µM | – | > 100 µM | > 100 µM | > 100 µM | > 100 µM | > 100 µM | > 100 µM | > 100 µM | > 100 µM | > 100 µM | > 100 µM
12 | Cc1ccc2[nH]c3c(c2c1)C1CCC(C(C)(C)C)CC1C1C(=O)N(c2ccc(Oc4ccccc4)cc2)C(=O)C31 (centres undefined) | > 100 µM | > 100 µM | 31.3 µM | 41.9 µM | > 100 µM | 7.92 µM | 9.08 µM | > 100 µM | > 100 µM | 31.5 µM | > 100 µM | > 71.9 µM
13 | OC1CCN2Cc3ccccc3N=C12 (centres undefined) | > 100 µM | > 100 µM | > 100 µM | > 100 µM | > 100 µM | > 100 µM | > 100 µM | > 100 µM | > 100 µM | > 100 µM | > 100 µM | > 100 µM
14 | O=c1[nH]c2c(C(F)(F)F)c(Cl)c(-c3ccccc3)nc2o1 | > 100 µM | 38.4 µM | 84.3 µM | – | 51.6 µM | 32.5 µM | – | 69.8 µM | > 100 µM | > 100 µM | > 100 µM | > 100 µM
15 | CCN(CC)P(=O)(c1ccc2c(c1)OCCOCCOCCOCCO2)N(CC)CC | > 100 µM | > 100 µM | > 100 µM | > 100 µM | – | > 100 µM | > 100 µM | > 100 µM | > 100 µM | > 100 µM | > 100 µM | > 100 µM
16 | CC1OC1C(=O)P(=O)(O)O (centres undefined) | > 100 µM | > 100 µM | > 100 µM | – | – | > 100 µM | > 100 µM | > 100 µM | > 100 µM | > 100 µM | > 100 µM | > 100 µM
17 | Cc1cc(C)c2c(-c3ccccc3)cc(=O)[nH]c2c1 | > 100 µM | > 100 µM | > 100 µM | > 100 µM | > 100 µM | > 100 µM | > 100 µM | > 100 µM | > 100 µM | > 100 µM | – | –
18 | CN(C)N1C(=C(C#N)C#N)C(c2ccccc2)CC1C#N (centres undefined) | > 100 µM | > 100 µM | > 100 µM | > 100 µM | > 100 µM | > 100 µM | > 100 µM | – | > 100 µM | > 100 µM | > 100 µM | > 100 µM
